Assay results as given in US11911407B2, “Therapies for cardiomyopathy” (UNIVERSITY COLLEGE DUBLIN, NATIONAL UNIVERSITY OF IRELAND, priority 2013, dated 2024).
Entries after “also recorded” stand apart in the source; their conditions may differ.

Assays:
[1] = tested on: HCF cells; experiment: DMOG treatment of HCF cells in normoxia (Western blot); assay type: cell-based, human; settings: 1 mM DMOG, 24 hours
Protocol: Primary human cardiac fibroblast cells from the adult ventricle (HCF) were purchased from ScienCell Research Laboratories. Primary cells were derived from a single person. Until required for experiments, cells were cultured and maintained in Dulbecco's modified eagles medium (DMEM) (Gibco), supplemented with 10% Fetal Bovine Serum (Gibco) and penicillin-streptomycin antibiotics (Gibco) in a 5% CO2 humidified incubator kept at 37° C.
(§1) Where indicated, HCF cells were exposed to a 1% oxygen environment for up to 8 days using a hypoxic chamber (Coy Laboratories). The effects of 10 ng/ml recombinant TGFβ1 treatment (R&D Systems) under these conditions were investigated. When required, cells were treated for 24 hours with 1 mM of the prolyl hydroxylase inhibitor DMOG (Sigma) to simulate hypoxia through the induction of HIF under normoxic conditions.
Whole cell protein lysates were generated using RIPA Lysis Buffer (Millipore), containing a protease inhibitor cocktail (Roche). Nuclear protein extracts were obtained using the Ne-PeR Nuclear and Cytoplasmic extraction Reagents, according to manufacturer's instructions (Pierce Biotechnology). Protein concentrations were determined using the BCA Protein Assay Kit (Pierce). […]

[2] = tested on: cardiac myoblast cells; experiment: Cardiac myoblast gene expression of MYBP-C and ACTA1 in vitro by real-time PCR; assay type: cell-based; settings: 4 day treatment
Protocol: Confirmation of the impact of DNA methylation inhibitors can up-regulate the expression levels of MYBP-C and ACTA1 was assessed in vitro using cardiac myoblast cells. Cells were grown in culture for 4 days either in the presence or absence of 5-azacytidine (5AZA) or 5-aza-2-deoxycytidine (5AZA_DC). Gene expression was quantified using real-time PCR.

[3] = tested on: HCF cells; experiment: DNA demethylation with 5-aza-2′-deoxycytidine in hypoxic HCF cells, pro-fibrotic protein expression; assay type: cell-based, human; settings: for expression of ASMA / expression of collagen 1 / expression of collagen 3: hypoxic fibroblasts with TGFβ; for expression of ASMA / expression of collagen 1 / expression of collagen 3 / pro-fibrotic effects of / responses to TGFβ: 1-5 μM; for pro-fibrotic effects of / responses to TGFβ: hypoxic fibroblasts, up to eight days
Protocol: Where indicated, HCF cells were exposed to a 1% oxygen environment for up to 8 days using a hypoxic chamber (Coy Laboratories). The effects of 10 ng/ml recombinant TGFβ1 treatment (R&D Systems) under these conditions were investigated. When required, cells were treated for 24 hours with 1 mM of the prolyl hydroxylase inhibitor DMOG (Sigma) to simulate hypoxia through the induction of HIF under normoxic conditions. Whole cell protein lysates were generated using RIPA Lysis Buffer (Millipore), containing a protease inhibitor cocktail (Roche). Nuclear protein extracts were obtained using the Ne-PeR Nuclear and Cytoplasmic extraction Reagents, according to manufacturer's instructions (Pierce Biotechnology). Protein concentrations were determined using the BCA Protein Assay Kit (Pierce). 10-20 μg of protein lysates were denatured, reduced and resolved on SDS-polyacrylamide gels by SDS-PAGE before transfer onto 0.45 μm pore size Immobilon-P polyvinylidene fluoride (PVDF) membranes (Millipore). Membranes were incubated with blocking buffer (TBS, 0.25% Tween-20, 0.1% serum from species that secondary antibody was raised in, and 5% fat free skimmed milk) for 1 hour at room temperature. Membranes were subsequently probed overnight with either anti-ASMA (Sigma), anti-collagen 1, anti-DNMT3B (Imgenex), or anti-hypoxia inducible factor 1α (HIF-1α) (Novus Biologicals). Detection of the specific binding of the primary antibody was achieved using HRP-conjugated secondary antibodies, followed by signal detection with Immobilon Western chemiluminescent HRP substrate (Millipore) according to the manufacturer's instructions. Anti-alpha tubulin (Sigma) was used to verify equal loading. For demethylation analysis, cells were treated with 1-5 μM 5-aza-2′-deoxycytidine (5-azadc; Sigma) for up to eight days. The effect of global DNA methylation inhibition on pro-fibrotic protein expression was assessed using Western blotting.

[4] = tested on: spontaneously hypertensive rats (SHR); experiment: Hydroxyproline assay of total collagen in myocardium; assay type: in vivo, rat; settings: SHR-5AZA vs SHR-V, 12 weeks
Protocol: (§2) Approval from the local Animal Research Ethics Committee was sought and obtained to investigate the anti-fibrotic impact of 5-aza on cardiac function and fibrosis. Male spontaneously hypertensive rats (SHR) and their normotensive counterpart Wistar Kyote rats (WKY) were purchased from Charles River and utilised for the study. From 10 weeks of age, the animals received alternate day intra-peritoneal injection of either PBS (vehicle) or 5-aza (10 mg/kg) for 12 weeks. The 5-aza was purchased from Sigma, diluted in sterile PBS and filtered through a 0.22 μm filter. Aliquots were stored at −20° C. and were used within 5 days of reconstitution. The study design consisted of three groups of 10 animals; group 1 included 10 SHR rats who received 5-aza (SH R-5-aza); group 2 included 10 SHR rats who received PBS vehicle (SHR-V); group 3 included 10 WKY rats who received PBS vehicle (WKY-V). All rats were housed in the animal facility under identical conditions, with a 12 hour light-dark cycle.

[5] = tested on: spontaneously hypertensive rats (SHR); experiment: Doppler echocardiography in rat model of hypertensive heart disease; assay type: in vivo; settings: SHR-5AZA vs SHR-V, 10 mg/kg i.p. alternate day, 12 weeks
Protocol: Approval from the local Animal Research Ethics Committee was sought and obtained to investigate the anti-fibrotic impact of 5-aza on cardiac function and fibrosis. Male spontaneously hypertensive rats (SHR) and their normotensive counterpart Wistar Kyote rats (WKY) were purchased from Charles River and utilised for the study. From 10 weeks of age, the animals received alternate day intra-peritoneal injection of either PBS (vehicle) or 5-aza (10 mg/kg) for 12 weeks. The 5-aza was purchased from Sigma, diluted in sterile PBS and filtered through a 0.22 μm filter. Aliquots were stored at −20° C. and were used within 5 days of reconstitution. The study design consisted of three groups of 10 animals; group 1 included 10 SHR rats who received 5-aza (SH R-5-aza); group 2 included 10 SHR rats who received PBS vehicle (SHR-V); group 3 included 10 WKY rats who received PBS vehicle (WKY-V). All rats were housed in the animal facility under identical conditions, with a 12 hour light-dark cycle. Cardiac structure and function was assessed at baseline and at the end of the study (12 weeks) using Echocardiography. During the procedure, the animals were under inhaled anaesthesia (isoflurane 2%) and body temperature was maintained using a heat mat. Echocardiography assessment was performed using a Vevo 770 High-Resolution In Vivo Micro-Imaging System (Visualsonics) with a […] transducer. M-mode and 2-dimensional (2D) images were obtained in the parasternal long- and short-axis views. The interventricular septal thickness, posterior wall thickness, and LV diameter were measured in systole and diastole at the tips of the papillary muscle. Measurements were taken over three consecutive cardiac cycles and averaged. Left ventricular mass (LVM) was calculated according to Devereux's formula and indexed to tibial length (LVMi). Blinded analysis was performed by two separate independent observers.

[6] = tested on: spontaneously hypertensive rats (SHR); experiment: Picrosirius red staining with automated digital quantification of perivascular collagen; assay type: in vivo, rat; settings: SHR-5AZA vs SHR-V, 12 weeks
Protocol: as §2, with “cycle. […]” for “cycle.”
The degree of collagen deposition was quantified by automated digital image analysis. […] A positive pixel count algorithm was used to automatically quantify the area occupied by the dark pink stain colours representing collagen within each scanned slide image. […] A collagen volume fraction was calculated based on the percent of dark pink collagen staining quantified within a tissue section.

[7] = tested on: spontaneously hypertensive rats (SHR); experiment: Cardiac tissue gene expression of MYBP-C and ACTA1 by quantitative real-time PCR; assay type: in vivo, rat
Protocol: FIGS. 17 and 18 depict the effect of 5AZA treatment on cardiac expression levels of MYBP-C and ACTA1. Gene expression levels of MYBP-C and ACTA1 were assessed using quantitative real-time PCR in the cardiac tissue of SHR-V and SHR-AZA. […] Results represent mean and standard error of the mean. * p<0.05, *** p<0.001.
as §2

[8] = tested on: spontaneously hypertensive rats (SHR); experiment: Myocyte area digital analysis of haematoxylin and eosin stained cardiac tissue; assay type: in vivo, rat; settings: SHR-5AZA vs SHR-V
Protocol: FIG. 16 depicts the effect of 5AZA treatment on myocyte area in vivo. […] Male spontaneously hypertensive rats (SHR) and their normotensive counterpart Wistar Kyote rats (WKY) were purchased from Charles River and utilised for the study. From 10 weeks of age, the animals received alternate day intra-peritoneal injection of either PBS (vehicle) or 5-aza (10 mg/kg) for 12 weeks. The 5-aza was purchased from Sigma, diluted in sterile PBS and filtered through a 0.22 μm filter. Aliquots were stored at −20° C. and were used within 5 days of reconstitution. The study design consisted of three groups of 10 animals; group 1 included 10 SHR rats who received 5-aza (SH R-5-aza); group 2 included 10 SHR rats who received PBS vehicle (SHR-V); group 3 included 10 WKY rats who received PBS vehicle (WKY-V). All rats were housed in the animal facility under identical conditions, with a 12 hour light-dark cycle.

[9] = tested on: HCF cells; experiment: TGFβ1 treatment of HCF cells, quantitative real-time PCR; assay type: cell-based, human
Protocol: as §1
Gene expression changes were measured in HCF cells using QPCR as described in human cardiac tissue analysis methods section. RNA isolation from cells was achieved using NucleoSpin RNA II Kit (Macherey-Nagel). QPCR data was analysed using the delta delta CT method.

[10] = 10 ng/ml TGFβ1, 8 days hypoxia (1% oxygen)

In the case of `COC(=O)CNC(=O)C(=O)OC` [DMOG], the “expression of DNMT3B” value [1] is reported as “increased expression” and the “nuclear HIF-1α protein expression” value [1] is reported as “stabilises”.
For `Nc1ncn([C@@H]2O[C@H](CO)[C@@H](O)[C@H]2O)c(=O)n1` [5AZA, 5-azacytidine], the “ACTA1 gene expression in cardiac myoblast cells” value [2] was “significant increase”, the “MYBP-C gene expression in cardiac myoblast cells” value [2] was “significant increase” and the “pro-fibrotic impact of hypoxia” value ([3]; FIGS. 7A-7C) was “reverses”. For the same compound, the “total collagen / collagen deposition within the myocardium (hydroxyproline)” value [4] was “significant reduction”, the cardiac hypertrophy [5] was “significant reduction” and the “E prime (E′), diastolic dysfunction” value ([5]; 10 mg/kg) was “significantly approved; also recorded: significantly improved”. For the same compound, the “Ejection fraction (EF)” value ([5]; 10 mg/kg) was “significantly increased; also recorded: significantly improved”, the “interventricular septum diameter (in diastole)” value ([5]; 10 mg/kg) was “significant reduction; also recorded: reduced” and the “left ventricular mass index (LVMi)” value ([5]; 10 mg/kg) was “significant reduction; also recorded: reduced”. For the same compound, the perivascular collagen [6] was “significantly reduced; also recorded: significant decrease”, the “ACTA1 expression in cardiac tissue” value ([7]; SHR animals treated with 5AZA) was “significant increase” and the “MYBP-C expression within the myocardium” value ([7]; SHR animals treated with 5AZA) was “significant increase”. The “increase in ACTA1 gene expression in cardiac tissue” value ([7]; SHR-AZA vs SHR-V) was 4 fold, the “increase in MYBP-C gene expression in cardiac tissue” value ([7]; SHR-AZA vs SHR-V) was 4 fold and the myocyte area [8] was “significantly smaller; also recorded: significant decrease”.
In the case of “TGFβ1: human recombinant transforming growth factor beta 1, pro-fibrotic cytokine”, the ASMA gene expression ([9]; 10 ng/ml TGFβ1) is reported as “significantly increased”, the “collagen 1 gene expression” value ([9]; 10 ng/ml TGFβ1) is reported as “significantly increased” and the ASMA gene expression [9, 10] is reported as “further enhanced”. For the same compound, the “collagen 1 gene expression” value [9, 10] was “further enhanced”.
In the case of `Nc1ncn([C@H]2C[C@H](O)[C@@H](CO)O2)c(=O)n1` [5AZA_DC, 5-aza-2′-deoxycytidine], the “ACTA1 gene expression in cardiac myoblast cells” value [2] is reported as “significant increase”, the “MYBP-C gene expression in cardiac myoblast cells” value [2] is reported as “significant increase” and the “expression of ASMA” value [3] is reported as “reduced expression”. The “expression of collagen 1” value [3] was “reduced expression”, the “expression of collagen 3” value [3] was “reduced expression” and the “expression of ASMA” value ([3]; listed as 5-aza2dC) was “significantly reduced”. For the same compound, the “expression of collagen 1” value ([3]; listed as 5-aza2dC) was “significantly reduced”, the “expression of collagen 3” value ([3]; listed as 5-aza2dC) was “significantly reduced” and the “pro-fibrotic effects of / responses to TGFβ” value [3] was “significantly reduced”. For the same compound, the “pro-fibrotic effects of / responses to TGFβ” value ([3]; listed as 5-aza2dC) was “inhibited”.
